According to PubChem BioAssay AID330 (DTP/NCI, 2004):
Where “and” joins values, the source holds several entries; their conditions need not be identical. Identical values can stand only once. Toxic doses and inconclusive results are not listed. Peptide text beside a SMILES is read from it. * marks the point of attachment. Cbz = O=C(OCc1ccccc1)*; Bn = c1ccc(C*)cc1

Test system: P388 leukemia ip, CD2F1 mice, survival T/C
Assay: NCI In Vivo Anticancer Drug Screen. Data for tumor model P388 Leukemia (intraperitoneal) in CD2F1 (CDF1) mice
Conditions: endpoint: median survival time, higher = longer survival
Procedure, shortened: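 Mice carrying the transplanted tumor received test compound or vehicle. Survival was recorded in each group, and the value is the treated-group measurement divided by that of the vehicle-treated control group.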

[1] = dose: 50.0 mg/kg/injection, schedule: Q01DX005 (ip), vehicle: Klucel (hydroxypropylcellulose) (HPC)
[2] = dose: 50.0 mg/kg/injection, schedule: Q01DX009 (ip), vehicle: saline with Tween-80
[3] = dose: 100.0 mg/kg/injection, schedule: Q01DX009 (ip), vehicle: saline with Tween-80
[4] = dose: 100.0 mg/kg/injection, schedule: Q04DX002 (ip), vehicle: saline with Tween-80
[5] = dose: 200.0 mg/kg/injection, schedule: Q04DX002 (ip), vehicle: saline with Tween-80
[6] = dose: 400.0 mg/kg/injection, schedule: Q04DX002 (ip), vehicle: saline with Tween-80

C=C(C)[C@H]1C[C@]2(C)[C@@H](C)CC(=O)C[C@H]2[C@@H](OC(=O)/C(C)=C\C)[C@@H]1OC(=O)/C(C)=C/C
T/C (dose: 130.0 mg/kg/injection, schedule: Q01DX001 (ip), vehicle: Klucel (hydroxypropylcellulose) (HPC)): 100 % of control
T/C (dose: 260.0 mg/kg/injection, schedule: Q01DX001 (ip), vehicle: Klucel (hydroxypropylcellulose) (HPC)): 99 % of control
T/C (dose: 520.0 mg/kg/injection, schedule: Q01DX001 (ip), vehicle: Klucel (hydroxypropylcellulose) (HPC)): 100 % of control

NC(=O)C(Cc1ccccc1)NC(=O)C(CSCc1ccccc1)NC(=O)OCc1ccccc1 (stereo unspecified) (Cbz-Cys(Bn)-Phe-NH2; configuration not given here)
T/C (dose: 12.5 mg/kg/injection, schedule: Q01DX005 (ip), vehicle: Klucel (hydroxypropylcellulose) (HPC)): 103 % of control
T/C (dose: 25.0 mg/kg/injection, schedule: Q01DX005 (ip), vehicle: Klucel (hydroxypropylcellulose) (HPC)): 102 % of control
T/C [1]: 86 % of control and 91 % of control

CC(C)CCNc1ncnc2c1cnn2C
T/C (dose: 25.0 mg/kg/injection, schedule: Q04DX003 (ip), vehicle: saline): 95 % of control
T/C (dose: 50.0 mg/kg/injection, schedule: Q04DX003 (ip), vehicle: saline): 100 % of control
T/C (dose: 100.0 mg/kg/injection, schedule: Q04DX003 (ip), vehicle: saline with Tween-80): 109 % of control

CC(=O)N1CC(=O)NC1=S
T/C [2]: 106 % of control
T/C [3]: 97 % of control
T/C (dose: 200.0 mg/kg/injection, schedule: Q01DX009 (ip), vehicle: saline with Tween-80): 103 % of control and 95 % of control
T/C (dose: 400.0 mg/kg/injection, schedule: Q01DX009 (ip), vehicle: saline with Tween-80): 104 % of control

NC1CCC2CCCCC2C1 (stereo unspecified)
T/C (dose: 100.0 mg/kg/injection, schedule: Q01DX001 (ip), vehicle: saline): 100 % of control
T/C (dose: 200.0 mg/kg/injection, schedule: Q01DX001 (ip), vehicle: saline): 104 % of control

CC(C)C(O)Cc1cc(=O)[nH]c2ccccc12 (stereo unspecified)
T/C [4]: 87 % of control
T/C [5]: 87 % of control
T/C [6]: 86 % of control

CCc1nc(N)nc(N)c1-c1ccc(Cl)c(Cl)c1.[Cl][Pd][Cl]
T/C (dose: 12.5 mg/kg/injection, schedule: Q04DX003 (ip), vehicle: saline with Tween-80): 95 % of control

Cc1cncn2c(C)nnc12
T/C (dose: 100.0 mg/kg/injection, schedule: Q04DX003 (ip), vehicle: saline): 100 % of control
T/C (dose: 200.0 mg/kg/injection, schedule: Q04DX003 (ip), vehicle: saline): 104 % of control

Cn1cnc2cc3c(cc2c1=O)nc1n3CCOC1
T/C (dose: 100.0 mg/kg/injection, schedule: Q04DX003 (ip), vehicle: Klucel (hydroxypropylcellulose) (HPC)): 103 % of control
T/C (dose: 200.0 mg/kg/injection, schedule: Q04DX003 (ip), vehicle: Klucel (hydroxypropylcellulose) (HPC)): 100 % of control
T/C (dose: 400.0 mg/kg/injection, schedule: Q04DX003 (ip), vehicle: Klucel (hydroxypropylcellulose) (HPC)): 93 % of control

CCN(CC)CCOC(=O)C(C)c1cccc2c(=O)cc(-c3ccccc3)oc12 (stereo unspecified)
T/C [1]: 90 % of control
T/C (dose: 100.0 mg/kg/injection, schedule: Q01DX005 (ip), vehicle: Klucel (hydroxypropylcellulose) (HPC)): 101 % of control
T/C (dose: 200.0 mg/kg/injection, schedule: Q01DX005 (ip), vehicle: Klucel (hydroxypropylcellulose) (HPC)): 101 % of control

Cc1ccc(C(=O)[O][Hg][CH2]C2COC([CH2][Hg][O]C(=O)c3ccc(C)cc3)CO2)cc1 (stereo unspecified)
T/C (dose: 25.0 mg/kg/injection, schedule: Q01DX009 (ip), vehicle: saline with Tween-80): 116 % of control
T/C [2]: 113 % of control
T/C [3]: 100 % of control

CSc1nc(N(C)C)c2cnn(C3CCCCO3)c2n1 (stereo unspecified)
T/C [4]: 97 % of control
T/C [5]: 100 % of control
T/C [6]: 100 % of control

Nc1nnc(/C=C/c2ccccc2)o1
T/C (dose: 60.0 mg/kg/injection, schedule: Q01DX005 (ip), vehicle: saline with Tween-80): 117 % of control
T/C (dose: 120.0 mg/kg/injection, schedule: Q01DX005 (ip), vehicle: saline with Tween-80): 107 % of control
T/C (dose: 240.0 mg/kg/injection, schedule: Q01DX005 (ip), vehicle: saline with Tween-80): 109 % of control
